Our source for the IC50 values is ChEMBL document CHEMBL1142618, “Mycalamide D, a new cytotoxic amide from the New Zealand marine sponge Mycale species” (J Nat Prod, 2000).

Type in all cases: functional, cell-based
One test has as its system P388. Kind of test: Cytotoxicity against mouse P388 cells after 96 hrs by MTT assay. To be noted: P388, 96 h. For orientation: Tetrazolium dyes change colour on reduction, which living cells bring about.
A further test relates to SH-SY5Y. Kind of test: Cytotoxicity against human SH-SY5Y cells after 96 hrs by MTT assay.
Test [1] in a line: Cytotoxicity against human H441 cells after 96 hrs by MTT assay. The note with it: NCI-H441, 96 h.
In the next test the test system is LLC-PK1. Put plainly: Cytotoxicity against pig LLC-PK1 cells after 96 hrs by MTT assay. To be noted: Sus scrofa, LLC-PK1, 96 h.

A word on the IC50: it is the concentration that gives 50% inhibition. Consider `C=C1C[C@](OC)([C@H](O)C(=O)N[C@H]2OCO[C@H]3[C@@H]2O[C@H](C[C@H](O)CO)C(C)(C)[C@@H]3O)O[C@H](C)[C@@H]1C` [MYCALAMIDE D], for which the midpoint of inhibition in the test with P388, the IC50, lay at 65.5 nM. In other words, the double-digit nanomolar range.
In the case of `C=C1C[C@](OC)([C@H](O)C(=O)N[C@H]2OCO[C@H]3[C@@H]2O[C@H](C[C@H](O)CO)C(C)(C)[C@@H]3OC)O[C@H](C)[C@@H]1C` [MYCALAMIDE A], the IC50 in the test with P388 is 5.2 nM; in the test with SH-SY5Y, 0.52 nM; in test [1], 0.46 nM; in the test on LLC-PK1, 0.65 nM.
Taken in the same sequence, the figures for `C=C1C[C@](OC)([C@H](O)C(=O)N[C@H]2OCO[C@H]3[C@@H]2O[C@H](C[C@@H](CO)OC)C(C)(C)[C@@H]3OC)O[C@H](C)[C@@H]1C` [MYCALAMIDE B] were 1.3 nM, 6.42 nM, 9.3 nM and 19.4 nM.
